Earlier results in patent publication US20210352892A1, “MACROMOLECULAR AND NONPARTICULATE AGROCHEMICALS TO REDUCE VAPOR DRIFT” (University of Utah Research Foundation, priority 2019, published 2021).

Conditions: at 25 ° C.

vapor pressure: 4.5 mPa
Compound: COc1c(Cl)ccc(Cl)c1C(=O)O [dicamba, 2-methoxy-3,6-dicholorobenzoic acid]
